These results are taken from patent US20250051347A1, “BIFUNCTIONAL CHIMERIC HETEROCYCLIC COMPOUND AND USE THEREOF AS ANDROGEN RECEPTOR DEGRADER” (Hinova Pharmaceuticals, Inc., priority 2021, published 2025).

The target of this experiment is T1, androgen receptor (AR) splicing variant AR-v7 (Homo sapiens, UniProt P10275).
T1 construct: The degradation activity of compounds on AR-v7 in 22RV1 cells; host or cells: 22RV1 cells
T1 sequence (P10275 1-644 isoform P10275-3): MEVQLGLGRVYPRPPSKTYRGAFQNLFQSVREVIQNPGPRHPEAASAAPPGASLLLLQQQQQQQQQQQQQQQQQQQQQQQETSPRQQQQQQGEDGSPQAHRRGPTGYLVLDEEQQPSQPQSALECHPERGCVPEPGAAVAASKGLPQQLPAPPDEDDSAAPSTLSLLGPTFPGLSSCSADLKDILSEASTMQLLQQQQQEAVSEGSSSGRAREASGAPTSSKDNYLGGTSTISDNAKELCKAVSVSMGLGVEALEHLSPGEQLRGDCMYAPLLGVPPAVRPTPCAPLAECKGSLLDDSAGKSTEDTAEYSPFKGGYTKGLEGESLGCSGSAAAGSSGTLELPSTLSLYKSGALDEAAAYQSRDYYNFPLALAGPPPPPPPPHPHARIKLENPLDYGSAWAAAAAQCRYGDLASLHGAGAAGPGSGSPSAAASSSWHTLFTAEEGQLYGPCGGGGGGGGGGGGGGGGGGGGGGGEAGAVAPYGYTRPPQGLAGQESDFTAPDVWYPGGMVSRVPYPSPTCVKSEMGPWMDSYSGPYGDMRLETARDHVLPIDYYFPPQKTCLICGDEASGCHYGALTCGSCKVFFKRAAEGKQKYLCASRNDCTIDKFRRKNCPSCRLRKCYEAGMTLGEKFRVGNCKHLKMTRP
Kind of experiment: Degradation activity on androgen receptor splicing variant AR-v7 in 22RV1 cells (ELISA). In kind it is cell-based. Conditions: AR-v7 degradation in 22RV1 cells, 48 h, class symbols. On the technique in general: An ELISA detects its analyte on a solid surface through an enzyme-linked reagent.
Usually DC50 stands for the concentration giving 50% degradation. A higher DC50 goes with a less potent degrader. `CC(C)(c1ccc(Oc2cnc(CN3CC(F)(F)C3)nc2)cc1)c1ccc(OC2CC(Nc3ccc4c(c3)C(=O)N(C3CCC(=O)NC3=O)C4=O)C2)cc1` (stereo not shown) [Example 479, 5-(((1r,3r)-3-(4-(2-(4-((2-((3,3-difluoroazetidin-1-yl)methyl)pyrimidin-5-yl)oxy)phenyl)propan-2-yl)phenoxy)cyclobutyl)amino)-2-(2,6-dioxopiperidin-3-yl)isoindolin-1,3-dione]: the DC50 fell in the range of 11 to 100 nM.

In the case of `Cc1nc(-c2ccnc(Oc3ccc(C(C)(C)c4ccc(O[C@H]5C[C@@H](Nc6ccc7c(c6)C(=O)N(C6CCC(=O)NC6=O)C7=O)C5)cc4)cc3)c2)no1` (stereo partly shown) [Example 481], the DC50 was in the range of 11 to 100 nM.

In turn, `Cc1nnc(-c2ncc(Oc3ccc(C(C)(C)c4ccc(O[C@H]5C[C@@H](Nc6ccc7c(c6)C(=O)N(C6CCC(=O)NC6=O)C7=O)C5)cc4)cc3)cn2)o1` (stereo partly shown) [Example 484] gave a DC50 of 11 to 100 nM.

In the case of `CC(=O)c1nccc(COc2ccc(C(C)(C)c3ccc(OCC4CN(c5ccc6c(c5)C(=O)N(C5CCC(=O)NC5=O)C6=O)C4)cc3)cc2)n1` (stereo not shown) [Example 485, 5-(3-((4-(2-(4-((2-acetylpyrimidin-4-yl)methoxy)phenyl)propan-2-yl)phenoxy)methyl)azetidin-1-yl)-2-(2,6-dioxopiperidin-3-yl)isoindolin-1,3-dione], the DC50 lay within 11 to 100 nM.

Consider `CC(=O)c1nccc(COc2ccc(C(C)(C)c3ccc(OC4CCN(c5ccc6c(c5)C(=O)N(C5CCC(=O)NC5=O)C6=O)C4)cc3)cc2)n1` (stereo not shown) [Example 486], for which the DC50 lay within 101 to 1000 nM.

Compound `CC(=O)c1nccc(COc2ccc(C(C)(C)c3ccc(N4CC5(C4)CN(c4ccc6c(c4)C(=O)N(C4CCC(=O)NC4=O)C6=O)C5)cc3)cc2)n1` (stereo not shown) [Example 488] gave a DC50 of 11 to 100 nM.

The compound `CC(=O)c1nccc(COc2ccc(C(C)(C)c3ccc(OC4CC5(CCN(c6ccc7c(c6)C(=O)N(C6CCC(=O)NC6=O)C7=O)CC5)C4)cc3)cc2)n1` (stereo not shown) [Example 489] registered a DC50 of 1000 to 5000 nM.

With `CC(=O)c1nccc(COc2ccc(C(C)(C)c3ccc(OC4CCC5(C4)CN(c4ccc6c(c4)C(=O)N(C4CCC(=O)NC4=O)C6=O)C5)cc3)cc2)n1` (stereo not shown) [Example 490], the 50% degradation concentration (DC50) was in the range of 101 to 1000 nM.

For `CC(C)(c1ccc(OCc2ccnc(N3CC4(COC4)C3)n2)cc1)c1ccc(OCC2(CNc3ccc4c(c3)C(=O)N(C3CCC(=O)NC3=O)C4=O)CC2)cc1` (stereo not shown) [Example 495], the DC50 lay in the range of 101 to 1000 nM.

Compound `CC(C)(c1ccc(OCCC#Cc2ccc3c(c2)C(=O)N(C2CCC(=O)NC2=O)C3=O)cc1)c1ccc(OCc2ccnc(N3CC4(COC4)C3)n2)cc1` (stereo not shown) [Example 497] returned a DC50 of 1000 to 5000 nM.

Regarding `CC(C)(c1ccc(OCc2ccnc(N3CC4(COC4)C3)n2)cc1)c1ccc(OCC2(Nc3ccc4c(c3)C(=O)N(C3CCC(=O)NC3=O)C4=O)CCC2)cc1` (stereo not shown) [Example 498, 5-((1-((4-(2-(4-((2-(2-oxa-6-azaspiro[3.3]heptan-6-yl)pyrimidin-4-yl)methoxy)phenyl)propan-2-yl)phenoxy)methyl)cyclobutyl)amino)-2-(2,6-dioxopiperidin-3-yl)isoindolin-1,3-dione], the DC50 lay within 11 to 100 nM.

As to `CC(C)(c1ccc(OCc2ccnc(N3CC4(COC4)C3)n2)cc1)c1ccc(O[C@]2(C)C[C@@H](Nc3ccc4c(c3)C(=O)N(C3CCC(=O)NC3=O)C4=O)C2)cc1` (stereo partly shown) [Example 499, 5-((1r,3r)-3-(4-(2-(4-(4-((2-(2-oxa-6-azaspiro[3.3]heptane-6-yl)pyrimidin-4-yl)methoxy)phenyl)propan-2-yl)phenoxy)-3-methylcyclobutyl)amino)-2-(2,6-dioxopiperidin-3-yl)isoindolin-1,3-dione], the DC50 was 11 to 100 nM.

`CC(C)(c1ccc(OCc2ccnc(N3CCC4(CCNC4)CC3)n2)cc1)c1ccc(O[C@H]2C[C@@H](Nc3ccc4c(c3)C(=O)N(C3CCC(=O)NC3=O)C4=O)C2)cc1` (stereo partly shown) [Example 500, 5-((1s,3s)-3-(4-(2-(4-(4-((2-(2,8-diazaspiro[4.5]decan-8-yl)pyrimidin-4-yl)methoxy)phenyl)propan-2-yl)phenoxy)cyclobutyl)amino)-2-(2,6-dioxopyridin-3-yl)isoindolin-1,3-dione] registered a DC50 of 11 to 100 nM.
